According to ChEMBL document CHEMBL1153933, “Selective inhibition of Pfmrk, a Plasmodium falciparum CDK, by antimalarial 1,3-diaryl-2-propenones” (Bioorg Med Chem Lett, 2009):

How the values were obtained:
Protein kinase Pfmrk = target: T1, Protein kinase Pfmrk (Plasmodium falciparum, UniProt P90584); test: Inhibition of His6x-tagged Plasmodium falciparum Pfmrk expressed in Escherichia coli by microtiter plate scintillation counting
T1 sequence (P90584 whole entry): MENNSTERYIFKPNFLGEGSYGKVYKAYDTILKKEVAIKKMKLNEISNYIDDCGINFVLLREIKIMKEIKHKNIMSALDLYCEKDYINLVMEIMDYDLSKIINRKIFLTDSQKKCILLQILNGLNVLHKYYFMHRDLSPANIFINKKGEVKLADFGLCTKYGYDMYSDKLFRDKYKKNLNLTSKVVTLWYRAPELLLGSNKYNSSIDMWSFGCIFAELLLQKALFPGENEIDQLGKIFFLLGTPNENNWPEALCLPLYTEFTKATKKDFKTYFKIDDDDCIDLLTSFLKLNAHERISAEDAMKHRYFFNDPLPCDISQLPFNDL

[1] = Inhibition of His6x-tagged Plasmodium falciparum PfPK5 expressed in Escherichia coli by microtiter plate scintillation counting
Plasmodium falciparum [2] = test: Antimalarial activity after 24 hrs against chloroquine-sensitive Plasmodium falciparum D6 by [3H]hypoxanthine uptake; assay type: functional, organism-based
Plasmodium falciparum [3] = test: Antimalarial activity after 24 hrs against chloroquine-resistant Plasmodium falciparum W2 by [3H]hypoxanthine uptake; assay type: functional, organism-based

SMILES | IC50 (Protein kinase Pfmrk) | IC50 [1] | IC50 (Plasmodium falciparum [2]) | IC50 (Plasmodium falciparum [3])
COc1ccc(C(=O)/C=C/c2ccc3ccccc3c2)c(OC)c1 | 100 µM | – | – | –
COc1ccc(C(=O)/C=C/c2ccc3ccccc3c2)c(OC)c1OC | 19 µM | > 100 µM | – | –
COc1ccc(C(=O)/C=C/c2cccc3ccccc23)c(OC)c1 | 1.3 µM | > 100 µM | – | –
O=C(/C=C/c1ccc([N+](=O)[O-])cc1)c1cccc([N+](=O)[O-])c1 | 268 µM | > 268 µM | > 16.8 µM | > 16.8 µM
COc1ccc(C(=O)/C=C/c2ccccn2)c(OC)c1OC | 34 µM | > 100 µM | 2.5 µM | 2.3 µM
CC(=O)Nc1ccc(C(=O)/C=C/c2ccccc2)cc1 | – | > 302 µM | 10.9 µM | 9.9 µM
O=C(/C=C/c1ccccn1)c1ccccc1 [WR-190433] | 22 µM | > 382 µM | – | –
COc1ccc(C(=O)/C=C/c2cccc3ccccc23)c(OC)c1OC | 50 µM | > 100 µM | – | –
COc1ccc(C(=O)/C=C/c2ccncc2)cc1 | 8.2 µM | 100 µM | 12 µM | 12.2 µM
COc1ccc(C(=O)/C=C/c2ccncc2)c(OC)c1OC | 9 µM | > 100 µM | 2.8 µM | 3.2 µM
CCOC(=O)/C(=C\c1ccccn1)C(=O)c1cccc([N+](=O)[O-])c1 | 61 µM | 123 µM | – | –
COc1ccc(C(=O)/C=C/c2cccnc2)c(OC)c1OC | 38 µM | > 100 µM | 3.2 µM | 3.9 µM
Cc1ccc(C(=O)/C=C/c2ccccc2)cc1 | 20 µM | > 360 µM | 11.7 µM | 11.5 µM
C/C(=C\C(=O)c1cccc([N+](=O)[O-])c1)c1cccc([N+](=O)[O-])c1 | > 256 µM | > 256 µM | 8.3 µM | 8.2 µM
N#Cc1ccc(C(=O)/C=C/c2ccc(Cl)cc2)cc1 | > 100 µM | > 299 µM | > 18.2 µM | 10.5 µM
COc1ccc(C(=O)/C=C/c2ccccn2)cc1 | 12 µM | > 100 µM | 7.1 µM | 10.5 µM
COc1ccc(C(=O)/C=C/c2cccc3ccccc23)cc1 | > 100 µM | > 100 µM | – | –
O=C(/C=C/c1ccccn1)c1cccc([N+](=O)[O-])c1 | 18 µM | > 315 µM | 11 µM | > 19.7 µM
O=C(/C=C/c1ccccc1)c1cccc([N+](=O)[O-])c1 | – | > 316 µM | > 19.8 µM | > 19.8 µM
